Test [1] concerns S. aureus ATCC 10390. The experiment in a line: Kirby-Bauer disk diffusion assay on compound spots from cleaved macroarray. The class given is cell-based, Staphylococcus aureus. Conditions: loadings 30 μg/spot, 18 h incubation. As for the experimental part:
While the heterocyclic libraries were being synthesized, the chalcone macroarrays were analyzed using various direct assay techniques such as the Kirby-Bauer disk diffusion assay (FIG. 2E). Bauer, A. W.; Kirby, […].; Turck, M. Technical Bulletin of the Registry of Medical Technologists 1966, 36, 49-52. For this assay, the macroarray members are punched out from the membrane, cleaved from the support with TFA vapor, neutralized with ammonia vapor, and then placed on an agar bed inoculated with S. aureus. After incubating overnight, different diameters of zones of inhibition are measured as a factor of potency as well as solubility in the medium. Ammonia vapor neutralization was key in the disk diffusion assay, otherwise residual TFA vapor created a false positive signature. However, in this method, macroarrays have to be made in triplicate one for a replicate and one for compound characterization. We first evaluated test chalcone macroarrays (3) in antibacterial assays against S. aureus. Because the macroarrays were prepared on cellulose filter paper, we had convenient access to the compounds in disk form for standard disk diffusion assays. Compound spots were punched out of the macroarrays, subjected to vapor phase cleavage with acid (TFA), and neutralized (NH3) to afford disks containing ca. 30 μg of adsorbed compound [8]. These disks were manually placed on lawns of S. aureus, and zones of inhibition were measured after an 18 h incubation period. […] However, this antibacterial assay format had drawbacks: (1) the entire sample of compound was consumed during the assay, and thus replicate arrays needed to be synthesized to confirm activity, and (2) manipulating large numbers of compound disks was relatively labor intensive. Compound spots were cleaved with TFA and neutralized with NH3 as described herein. […] Compound spots were placed onto the agar, the plate was incubated at 37° C. for 18 h, and the diameters of the zones of inhibition were measured. […] Compound spots were subjected to the TFA cleavage conditions described above. The spots were next subjected to NH3 vapor to neutralize any remaining TFA. […] Vials containing the spots (or intact macroarrays) were placed inside a small evaporating dish, and this was placed into the NH4OH solution. The Pyrex dish was covered, and NH3 vapor was allowed to slowly diffuse into the vials. After 1 h, the vials were removed from the NH3 chamber, and the spots were allowed to stand open in a fume hood for at least 15 min to vent prior to analysis in the following assays. This afforded dry, paper disks containing adsorbed compound. […] The plates were removed, and the diameters of the zones of inhibition were measured in mm using a ruler (see FIG. 1A).
A general note: Agar diffusion results depend on both activity and mobility in agar.

The subject of test [2] is B. subtilis subsp. spizizenii ATCC 6633. The experiment in a line: MIC determination, species selectivity. Type of test: cell-based. Conditions: Bacillus subtilis, ATCC6633; authentic sample, only trans isomers of chalcones; error reflects step size. On the procedure:
(§1) Each compound from Table 3 was tested for inhibitory activity at 2.5, 5, 7.5, 10, 15, 20, 25, and 30 μM in the susceptible overlaid strains: B. subtilis ATCC 6633, S. epidermidis ATCC 12228, and K. pneumoniae ATCC 4352. MIC assays were run in quadruplicate as described above (with shaking).

The test system of test [3] is S. epidermidis ATCC 12228. The experiment in a line: MIC determination, species selectivity. Type of test: cell-based. As to conditions: Staphylococcus epidermidis, ATCC12228; authentic sample, only trans isomers of chalcones; error reflects step size. As for the experimental part: as §1
Test [4] concerns S. aureus 10390. Kind of test: Time-dependent bacterial killing curves. The class given is cell-based, Staphylococcus aureus. Conditions: 0.5x to 4x MIC, 0-6 h. On the procedure: Solutions of compounds 4Bv, 6Ao, 9Cf, and linezolid were prepared in DMSO over a range of concentrations. […] At 0, 2, 4, and 6 h time points, […] samples were withdrawn from the test tubes, diluted into 10 mL of LB broth in a test tube, and swabbed in duplicate on agar plates to determine CFUs. These plates were incubated at 37° C. for 24 h, after which time the colonies were counted visually. […] Instead, 200 μL was removed from the test tube and directly swabbed on the agar plates.

≈ marks a conversion by molar mass, not a printed value.

What is called MIC is the lowest concentration that inhibits growth of the organism. A low value points to a more susceptible organism. As to `O=C(/C=C/c1cc(C(F)(F)F)cc(C(F)(F)F)c1)c1cccc(O)c1` [Compound 4Bv, 3′-hydroxy-3,5-bis(trifluoromethyl)chalcone], the Zones of inhibition in test [1] is recorded as 22 mm. The minimal inhibitory concentration (MIC) is 8.8 ± 1.2 µM (≈ 3.17 µg/mL) in test [2] and 3.8 ± 1.2 µM (≈ 1.37 µg/mL) in test [3]. For the same compound, in test [4], the “mode of activity (bacteriostatic or bactericidal)” value was “bacteriostatic”.

The record behind these values is US8227616B2, “Cyanopyridine antibacterial agents and methods of use thereof” (Wisconsin Alumni Research Foundation, priority 2006, dated 2012).
